Experimental data: ChEMBL document CHEMBL1156829 (Proc Natl Acad Sci U S A, 2008)

Experiments:
[1] = NOVARTIS: Cytotoxicity against human hepatocellular carcinoma cell line (Huh7); format: toxicity, cell-based, Huh-7; details: Huh7 cells (hepatocellular carcinoma cell line)
[2] = test system: Plasmodium falciparum; experiment: NOVARTIS: Inhibition of Plasmodium falciparum 3D7 (drug-susceptible) proliferation in erythrocyte-based infection assay; format: functional, organism-based; details: Plasmodium falciparum, 3D7
[3] = test system: Plasmodium falciparum; experiment: NOVARTIS: Inhibition of Plasmodium falciparum W2 (drug-resistant) proliferation in erythrocyte-based infection assay; format: functional, organism-based; details: Plasmodium falciparum, W2; read-out: EC50

Compound	CC50 [1] [nM]	EC50 [2] [nM]	EC50 [3] [nM]
O=C(CSc1nc(-c2ccccc2Cl)ns1)Nc1ccc2c(c1)OCCO2	> 100000	593	273
COc1cc(NC(C)CCCN(Cc2ccc(F)cc2)C(=O)C(c2ccccc2)c2ccccc2)c2ncccc2c1 (configuration not stated)	> 3470	> 1090	< 0.572
COc1ccc(CCNC2(Cc3ccccc3)CC(C)N(C)CC2C)cc1OC (configuration not stated)	42700	620	268
CC[n+]1c(C=C2C=C(C)CC(C)C2)sc2ccccc21 (configuration not stated)	> 100000	326	300
COc1ccc(C=NNc2cc(C)nc3ccccc23)cc1	18900	228	207
CCN(Cc1ccccc1)c1ncnc2ccc(Br)cc12	95300	7440	> 12500
Cc1cccc(NC(=S)NC2CC3CCCC(C2)N3CCc2ccccc2)c1 (configuration not stated)	30700	668	914
Cc1cccc(Nc2ccccc2C(=O)OCC(=O)N2CC(=O)Nc3ccccc32)c1C	55100	4710	3820
CCOc1ccc(CCN2C(=S)N(c3cccc(C(F)(F)F)c3)C(=O)C2CC(=O)Nc2ccc(C(=O)OC)cc2)cc1OCC (configuration not stated)	28500	1740	580
CCN(CC)CCCC(C)NCc1ccc(OC)c(OCc2ccccc2)c1 (configuration not stated)	> 10000	> 787	264
CC(Cl)=CCc1c(C)nc2c(ccc3ccccc32)c1O	> 100000	230	299
CCOc1ccc(NC(=O)CSc2nc3cc(OCC)ccc3[nH]2)cc1	> 13800	900	> 1250
O=C(COc1ccc(Cl)cc1)Nc1cccc(-c2nc3ncccc3o2)c1	> 100000	1640	311
O=C(Nc1ccc(NC(=O)c2ccc(C3=NCCCN3)cc2)cc1)Nc1ccc(C2=NCCCN2)cc1	> 10000	115	148
O=C1CC(c2ccccc2)CC2=C1C(c1cccc(Cl)c1Cl)Nc1ccccc1N2 (configuration not stated)	> 78800	288	464
CC[n+]1c(/C=C/c2ccc(C)cc2)ccc2ccccc21	> 10000	97.4	119
CCN(CC)Cc1cc(Nc2ccnc3cc(Cl)ccc23)ccc1O	> 100000	10.3	13
CCOc1ccc2[nH]c3c(NCCCN4CCOCC4)ncnc3c2c1	36400	749	267
Nc1nnc(CCSc2ccc(Cl)cc2)s1	> 3710	175	> 1250
CC(C)NC(=O)c1cn(Cc2ccccc2)cc(C(=O)NCCc2nc3ccccc3[nH]2)c1=O	> 100000	3340	2220
COc1ccc(OC)c(C2C3=C(CC(C)(C)CC3=O)N(c3ccc(Cl)c(Cl)c3)C3=C2C(=O)CC(C)(C)C3)c1	> 100000	430	546
COc1ccc(/C=C/C(=O)NC(=O)c2ccccc2O)cc1	> 10000	118	92.1
COc1cc(NC(C)CCCN(Cc2ccc(F)cc2)C(=O)Nc2ccc(Br)cc2)c2ncccc2c1 (configuration not stated)	4240	927	691

Compound	CC50 [1] [nM]	EC50 [2] [nM]	EC50 [3] [nM]
CCOC(=O)C1=C(C)NC2=C(C(=O)CC(c3ccc(OC)c(OC)c3)C2)C1c1ccc(F)cc1 (configuration not stated)	> 100000	18.3	12.4
Cc1cccc2nc(N)nc(N)c12	> 10000	753	> 1250
Cc1nc(N2CCCCC2)c2c(C)c(C(=O)N3CCN(c4cccc(Cl)c4)CC3)sc2n1	> 100000	> 12500	319
CCOc1ccc(-c2nc(NC(=O)Cc3cccc(OC)c3)sc2C)cc1	> 10000	273	417
Cc1cc(N2CCCCC2)nc2ccc(NC(=O)c3cccc([N+](=O)[O-])c3)cc12	> 100000	440	793
O=C1N(c2ccccc2)C[C@@H]2C[C@@H](c3ccc(C#CCCO)cc3)N3CCC[C@@]123	16800	832	757
Cc1oc(C)c2c(=O)cc(-c3cccs3)cc(O)c12	> 100000	1220	758
Cc1ccc(C2C3=C(CC(C)(C)CC3=O)N(Cc3ccc4c(c3)OCO4)C3=C2C(=O)CC(C)(C)C3)cc1	> 100000	3750	1770
COc1ccc(NC(=O)Cn2c(C)c(C=O)c3ccccc32)cc1	> 100000	1450	1770
CCN1CCN(c2cc(C)c3cc(NC(=O)/C=C/c4cccc(Cl)c4)ccc3n2)CC1	> 13800	935	1010
COc1cc[n+](OC(=O)N2CCCCC2)c(C)c1	36600	188	810
CCOc1ccc2[nH]c(=O)c(CN(CCCN3CCOCC3)C(=S)NCCCN(CC)CC)cc2c1	> 100000	2610	679
Cc1cc(N2CCN(CC=Cc3ccccc3)CC2)n2c(nc3ccccc32)c1C#N	> 100000	657	942
COc1ccc2[nH]c3c(=O)n(C)cnc3c2c1	> 10000	> 1410	1000
COCCN(C)C(=O)COC(c1cccs1)c1cccnc1Cl (configuration not stated)	> 10000	407	299
Cc1cc(Nc2ccc(C)c(Cl)c2)n2ncnc2n1	> 10000	1400	> 927
CCOCc1nnc(NC(=O)COc2ccc(Cl)cc2Cl)s1	> 100000	> 12500	6420
NCCC(=O)N1CC(c2ccccc2)c2ccccc2C1CN1CCCCC1 (configuration not stated)	8520	342	231
COc1ccc(C2CC(=O)C3=C(C2)NC(C)=C(C(=O)OC(C)C)C3c2ccc(F)cc2)cc1OC (configuration not stated)	22800	9.45	13.1
COc1ccc(C2CC(=O)C3=C(C2)NC(C)=C(C(=O)OC(C)C)C3c2ccccc2C)cc1OC (configuration not stated)	> 100000	9.98	14.5
CN(CCCNc1ccnc2cc(Cl)ccc12)C(=O)COCc1ccccc1	> 10000	110	< 13.5
Cc1cc(Nc2ccc(N(C)C)cc2)n2ncnc2n1	> 100000	6000	2270
O=C1C(Nc2ccc(O)cc2)=CC(=NS(=O)(=O)c2cccs2)c2ccccc21	2430	590	297

Compound	CC50 [1] [nM]	EC50 [2] [nM]	EC50 [3] [nM]
Cc1nn(C)cc1-c1nc2cnccn2c1NCC1CCCO1 (configuration not stated)	> 10000	> 1250	> 876
Cc1ccccc1OCCSc1nc2ccc(NC(=O)c3ccccc3)cc2s1	> 100000	9760	> 7470
Cc1nc(-c2nc3c(s2)CN(C(=O)CCc2cccnc2)CC3)cs1	> 10000	1090	335
Oc1ccc(-c2ccccc2)cc1CN1CCC(c2ccccc2)CC1	> 100000	2420	204
O=C(NCCc1ccccc1)c1cnc(NCCC2=CCCCC2)nc1NCC1CCCCC1	> 10000	436	395
CC[C@H]1CN2CCc3cc(OC)c(OC)cc3[C@@H]2C[C@@H]1C[C@H]1NCCc2cc(OC)c(OC)cc21 [EMETINE]	116	10.1	22.9
CCN1CCN(CC=Cc2ccccc2[N+](=O)[O-])CC1	> 100000	> 12500	> 9690
COc1ccc(OC)c(-c2ccc(O)c(CNCCc3ccc(Cl)cc3)c2)c1	> 10000	987	749
COc1ccc(-c2c[n+](CC(=O)c3ccccc3Cl)c3n2CCC3)cc1	> 100000	1070	1290
Cc1cc(N2CCC(C)CC2)nc2ccc(NC(=O)c3ccc([N+](=O)[O-])o3)cc12	21900	1660	2140
CC1(C)CC(NC(=O)Cc2ccc(Cl)cc2)CC(C)(C)N1	> 100000	> 12500	2300
CCN(CC)CCN(Cc1cc2cc(OC)ccc2[nH]c1=O)C(=S)Nc1ccc(F)cc1	51400	2080	3320
CCN1/C(=C/c2cccc[n+]2C)Sc2cc(NC(C)=O)ccc21	> 10000	1400	> 1250
O=C(C1CCC(Cn2c(=S)[nH]c3ccccc3c2=O)CC1)N1CC=C(c2ccccc2)CC1 (configuration not stated)	> 10000	> 964	1200
Cc1ccc2nc(Cl)c3cc(C(=O)Nc4ccc(CN5CCC(C)CC5)cc4)sc3c2c1	> 75800	45.1	64.9
CCn1c(SCCCCNC(=O)c2cc([N+](=O)[O-])cc([N+](=O)[O-])c2)nc(-c2ccc(C)cc2)c1-c1ccc(C)cc1	> 10000	679	73.1
CC(C)NCC(O)Cn1c2ccc(Br)cc2c2cc(Br)ccc21 (configuration not stated)	3360	216	54.4
Cc1ccc(-c2c3c(nc4sc(C(=O)Nc5cccc(C)c5)c(N)c24)CCC3)cc1	> 100000	1010	82.7
O=C(CCC1CCCN(C(=O)c2ccsc2)C1)N1CCN(c2ccccn2)CC1 (configuration not stated)	> 10000	> 1250	> 1100
CN(C)CCCNc1c2ccccc2nc2ccccc12	8450	32.7	387
COc1ccc(OC)c(-c2ccc(O)c(CN3CCCCCC3)c2)c1	> 10000	570	87.6
CCOc1ccc2ncc(S(=O)(=O)c3ccc(OC)cc3)c(N3CCN(C)CC3)c2c1	> 100000	100	2080
Oc1ccccc1C=Nc1ccccc1[Te]c1ccccc1N=Cc1ccccc1O	552	3.49	3.14
